The nature of data set [1]: Cytotoxicity against human HEp2 cells. In kind it is cell-based, HEp-2.
Data set [2] is described as follows: Therapeutic index, ratio of CC50 for HEp2 to EC50 for RSV long A. The settings on record: human, HEp2 cells; read-out: Ratio CC50/EC50.
Data set [3] relates to Respiratory syncytial virus. The data set can be described thus: Antiviral activity against RSV long A with F1 protein K394R mutation in HEp2 cells. In kind it is functional, organism-based.

In the case of `CC(C)CCn1c(Cn2c(=O)n(C(C)C)c3ccccc32)nc2c(CCN)cccc21`, in data set [1], the CC50 (commonly the concentration that lowers cell viability or growth by half) worked out at 3.92 µM. For the same molecule, in data set [2], the selectivity ratio turned out to be 17. In addition, the EC50 (usually the concentration needed to bring the measured effect to its halfway point) in data set [3] was 0.23 µM.
Molecule `COCc1cccc2c1nc(Cn1c(=O)n(C(C)C)c3ccccc31)n2CCC(C)C` showed a CC50 in data set [1] of 26.7 µM. Moreover, in data set [2], the selectivity ratio is 3.56. The molecule further had an EC50 in data set [3] of 7.5 µM.
In data set [1], `COC(=O)c1cccc2c1nc(Cn1c(=O)n(C(C)C)c3ccccc31)n2CCC(C)C` came in with a 50% cytotoxic concentration (CC50) of 49.2 µM. In data set [2], the selectivity ratio came to 0.213. This molecule yielded an EC50 in data set [3] of 230 µM.
In data set [1], `CC(C)CCn1c(Cn2c(=O)n(C(C)C)c3ccccc32)nc2c(CC#N)cccc21` yielded a CC50 of 116 µM. In data set [2], the selectivity ratio was determined as 0.482. In addition, the EC50 in data set [3] came out at 241 µM.
The like results for `CC(C)CCn1c(Cn2c(=O)n(C(C)C)c3ccccc32)nc2c(CO)cccc21` were, in that order, 22 µM, 26.8 and 0.82 µM.
Molecule `CC(C)CCn1c(Cn2c(=O)n(C(C)C)c3ccccc32)nc2c(CN)cccc21` returned a CC50 in data set [1] of 7 µM. In addition, the selectivity ratio in data set [2] is 9.78. Besides, in data set [3], the EC50 worked out at 0.715 µM.

(Values after ChEMBL document CHEMBL1140659, “Respiratory syncytial virus fusion inhibitors. Part 5: Optimization of benzimidazole substitution patterns towards derivatives with improved activity” (Bioorg Med Chem Lett, 2007).)
